Assay results: PubChem BioAssay (NCI)
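Each compound was tested at five concentrations against cells in 96-well plates for 48 hours. Abbreviation: GI50, concentration required for 50% inhibition of growth. Definition used: TGI = concentration required for complete inhibition of growth.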

Key:
Experiment in all cases: growth of human tumour cells (NCI), 48 h
[1] = system: MDA-MB-231 breast
[2] = system: ACHN renal
[3] = system: CCRF-CEM leukemia
[4] = system: UACC-62 melanoma
[5] = system: OVCAR-5 ovarian
[6] = system: SK-MEL-28 melanoma
[7] = system: OVCAR-4 ovarian
[8] = system: K-562 leukemia
[9] = system: UO-31 renal
[10] = system: KM12 colon
[11] = system: SNB-19 CNS
[12] = system: SN12C renal
[13] = system: DU-145 prostate
[14] = system: EKVX NSCLC
[15] = system: HS 578T breast
[16] = system: RPMI-8226 leukemia
[17] = system: HOP-92 NSCLC
[18] = system: SR leukemia
[19] = system: SW-620 colon
[20] = system: SF-295 CNS
[21] = system: HCT-116 colon
[22] = system: MDA-MB-435
[23] = system: SNB-75 CNS
[24] = system: A549 NSCLC
[25] = system: UACC-257 melanoma
[26] = system: TK-10 renal
[27] = system: IGROV1 ovarian
[28] = system: T-47D breast
[29] = system: HT29 colon

SMILES: C/C(=C(/c1ccc(O)cc1)c1ccc(OCCN(C)C)cc1)c1ccc(Cl)cc1
- TGI [1]: 46.1 µM
- GI50 [2]: 29.1 µM
- TGI [2]: 89.4 µM
- GI50 [3]: 25 µM
- TGI [3]: 77.7 µM
- GI50 [4]: 18.5 µM
- TGI [4]: 36.5 µM
- GI50 [5]: 33.7 µM
- TGI [5]: > 100 µM
- GI50 [6]: 16.7 µM
- TGI [6]: 31.5 µM
- GI50 [7]: 35.4 µM
- TGI [7]: > 100 µM
- GI50 [8]: 19.6 µM
- TGI [8]: 53.8 µM
- GI50 [9]: 13.5 µM
- TGI [9]: 28.8 µM
- GI50 [10]: 25.6 µM
- TGI [10]: 72.6 µM
- GI50 [11]: 21.4 µM
- TGI [11]: 51.1 µM
- GI50 [12]: 32.5 µM
- TGI [12]: > 100 µM
- GI50 [13]: 34.3 µM
- TGI [13]: > 100 µM
- GI50 [14]: 34.4 µM
- TGI [14]: > 100 µM
- GI50 [15]: 20 µM
- TGI [15]: 75.9 µM
- GI50 [16]: 20.8 µM
- TGI [16]: 54.5 µM
- GI50 [17]: 22.3 µM
- TGI [17]: 90.3 µM
- GI50 [18]: 18.8 µM
- TGI [18]: 47.9 µM
- GI50 [19]: 16.2 µM
- TGI [19]: 31.7 µM
- GI50 [20]: 21 µM
- TGI [20]: 42.1 µM
- GI50 [21]: 14.8 µM
- TGI [21]: 28.7 µM
- GI50 [22]: 16.6 µM
- TGI [22]: 31.4 µM
- GI50 [23]: 19.9 µM
- TGI [23]: > 100 µM
- GI50 [24]: 50.9 µM
- TGI [24]: > 100 µM
- GI50 [25]: 16.9 µM
- TGI [25]: 32.7 µM
- GI50 [26]: 79.7 µM
- TGI [26]: > 100 µM
- GI50 [27]: 31.6 µM
- TGI [27]: > 100 µM
- GI50 [28]: 12.2 µM
- TGI [28]: 59.5 µM
- GI50 [29]: 16 µM
- TGI [29]: 31.9 µM
